Reference: US11317630B2, “Method of controlling weeds” (Sumitomo Chemical Company, Limited, priority 2018, dated 2022)

Assays:
Format in all cases: in vivo
[1] = tested on: Amaranthus palmeri having an Arg128Gly, Arg128Met, Gly210 deletion or Gly399Ala mutation in PPO2, waterhemp having a Gly210 deletion mutation in PPO2, ragweeds …; assay: Herbicidal effect, soil application with drift-reducing nozzle 7 days before sowing soybean (Example 1); details: soil surface, TTI11004 nozzle, 10, 20, 40, 80, or 160 g/ha, 200 L/ha, greenhouse, soybean sown after 7 days, examined after 14 days
Description: Amaranthus palmeri having an Arg128Gly mutation in PPO2, Amaranthus palmeri having an Arg128Met mutation in PPO2, Amaranthus palmeri having a Gly210 deletion mutation in PPO2, Amaranthus palmeri having a Gly399Ala mutation in PPO2, waterhemp having a Gly210 deletion mutation in PPO2, and ragweeds having Arg128Leu in PPO2 are sown in a plastic pot. On the same day, a compound X is applied to the surface of soil by using a drift-reducing nozzle (TTI11004 manufactured by Teejet Company). The amount of the compound X to be applied is 10, 20, 40, 80, or 160 g/ha and the amount of spray dilution is 200 L/ha. Then, these weeds are cultivated in a greenhouse and Roundup Ready 2 Xtend soybean seeds are sown after 7 days, to examine the effects on the weeds and phytotoxic effects on the soybean after 14 days.

[2] = tested on: Amaranthus palmeri having an Arg128Gly, Arg128Met, Gly210 deletion or Gly399Ala mutation in PPO2, waterhemp having a Gly210 deletion mutation in PPO2, ragweeds …; assay: Herbicidal effect, soil application with drift-reducing nozzle on the day of sowing weeds and soybean (Example 2); details: soil surface on day of sowing, TTI11004 nozzle, 10, 20, 40, 80, or 160 g/ha, 200 L/ha, greenhouse, examined after 21 days
Description: Amaranthus palmeri having an Arg128Gly mutation in PPO2, Amaranthus palmeri having an Arg128Met mutation in PPO2, Amaranthus palmeri having a Gly210 deletion mutation in PPO2, Amaranthus palmeri having a Gly399Ala mutation in PPO2, waterhemp having a Gly210 deletion mutation in PPO2, ragweeds having Arg128Leu in PPO02, and a Roundup Ready 2 Xtend soybean are sown in a plastic pot. On the same day, a compound X is applied to the surface of soil by using a drift-reducing nozzle (TTI11004 manufactured by Teejet Company). The amount of the compound X to be applied is 10, 20, 40, 80, or 160 g/ha and the amount of spray dilution is 200 L/ha. Then, the weeds and soybean are cultivated in a greenhouse to examine the effects on the weeds and phytotoxic effects on the soybean after 21 days.

[3] = tested on: Amaranthus palmeri having an Arg128Gly, Arg128Met, Gly210 deletion or Gly399Ala mutation in PPO2, waterhemp having a Gly210 deletion mutation in PPO2, ragweeds …; assay: Herbicidal effect, foliar treatment with drift-reducing nozzle 21 days after sowing (Example 3); details: foliar treatment 21 days after sowing, TTI11004 nozzle, 10, 20, 40, 80, or 160 g/ha, 200 L/ha, greenhouse, examined 14 days after treatment
Description: Amaranthus palmeri having an Arg128Gly mutation in PPO2, Amaranthus palmeri having an Arg128Met mutation in PPO2, Amaranthus palmeri having a Gly210 deletion mutation in PPO2, Amaranthus palmeri having a Gly399Ala mutation in PPO2, waterhemp having a Gly210 deletion mutation in PPO2, ragweeds having Arg128Leu in PPO02, and a Roundup Ready 2 Xtend soybean are sown in a plastic pot. Then, the weeds and soybean are cultivated in a greenhouse and a compound X is applied to perform foliar treatment by using a drift-reducing nozzle (TTI11004 manufactured by Teejet Company) 21 days after sowing. The amount of the compound X to be applied is 10, 20, 40, 80, or 160 g/ha and the amount of spray dilution is 200 L/ha. Then, the weeds and soybean are further cultivated in a greenhouse to examine the effects on the weeds and phytotoxic effects on the soybean 14 days after treatment.

Measured: effects on the weeds

CCOC(=O)COc1ncccc1Oc1cc(-n2c(=O)cc(C(F)(F)F)n(C)c2=O)c(F)cc1Cl [compound X, Ethyl [3-[2-chloro-4-fluoro-5-(l-methyl-6-trifluoromethyl-2,4-dioxo-1,2,3,4-tetrahydropyrimidine-3-yl)phenoxy]-2-pyridyloxy]acetate]
valuable effect: all assays above
